Results taken from ChEMBL document CHEMBL3045009, “Synthesis and Biological Activity of the Functional Derivatives of 3- and 4-(Dimethyl-aminomethyl)-1,2-dithiolanes” (1992).

Tests used:
Type in all cases: functional
Spodoptera litura = assay: Insecticidal activity against Spodoptera litura assessed as mortality at 500 ppm; details: for mortality at 500 ppm: Spodoptera litura
Culex pipiens molestus = assay: Insecticidal activity against Culex pipiens molestus assessed as mortality at 5 ppm; details: for mortality at 5 ppm: Culex pipiens
Chilo suppressalis [1] = assay: Insecticidal activity against Chilo suppressalis (rice stem borer) assessed as mortality at 50 ug/g administered as topical application
Nilaparvata lugens = assay: Insecticidal activity against Nilaparvata lugens (brown planthopper) assessed as mortality at 50 ppm; details: for mortality at 50 ppm: Nilaparvata lugens
Tetranychus urticae = assay: Acaricidal activity against Tetranychus urticae (two-spotted spider mite) assessed as mortality at 500 ppm; details: for mortality at 500 ppm: Tetranychus urticae
Chilo suppressalis [2] = assay: Insecticidal activity against Chilo suppressalis (rice stem borer) assessed as mortality compound administered as topical application

CN(C)CC1CCSS1.O=C(O)C(=O)O (centres undefined)
mortality at 500 ppm (Spodoptera litura): 30%
mortality at 5 ppm (Culex pipiens molestus): 100%
mortality (Chilo suppressalis [1]): 100%
mortality at 50 ppm (Nilaparvata lugens): 80%
mortality at 500 ppm (Tetranychus urticae): 100%
LD50 (Chilo suppressalis [2]): 4.3 mg/kg

CN(C)CC(CSC(N)=O)CSC(N)=O.Cl.O
mortality at 500 ppm (Spodoptera litura): 100%
mortality at 5 ppm (Culex pipiens molestus): 100%
mortality (Chilo suppressalis [1]): 100%
mortality at 50 ppm (Nilaparvata lugens): 100%
mortality at 500 ppm (Tetranychus urticae): 80%
LD50 (Chilo suppressalis [2]): 12.6 mg/kg

CCC(=O)SCC(CSC(=O)CC)CN(C)C
mortality (Spodoptera litura): 40%
mortality (Culex pipiens molestus): 100%
mortality (Chilo suppressalis [1]): 100%
mortality (Nilaparvata lugens): 70%
mortality (Tetranychus urticae): 100%
LD50 (Chilo suppressalis [2]): 7.6 mg/kg

CC(C)NC(=S)SCC(CSC(=S)NC(C)C)CN(C)C
mortality at 500 ppm (Spodoptera litura): 50%
mortality at 5 ppm (Culex pipiens molestus): 100%
mortality (Chilo suppressalis [1]): 100%
mortality at 50 ppm (Nilaparvata lugens): 100%
mortality at 500 ppm (Tetranychus urticae): 80%
LD50 (Chilo suppressalis [2]): 12.7 mg/kg
